Here are results for 87 molecules from a melting point compilation (Tetko et al.; mined from patent text by program, amines drawn as free bases though some values may be those of a salt).

Regarding `COC(=O)CCC(=O)c1cccc(Cl)c1O`, the melting point fell in the range of 60 to 62 °C.

`O=C(Nc1ccc(-n2nc(C(F)(F)F)cc2C(F)(F)F)cc1)c1ccccc1O` registered a melting point of 173 to 175 °C.

As for `CSCC1Cc2cc(C)c3[nH]c(=O)ccc3c2O1` (configuration not stated), the melting point was in the range of 203 to 206 °C.

The molecule `NC(=O)c1cc2cccc(NC(=O)c3cccs3)c2[nH]1` showed a melting point of 289 to 290 °C.

`O=C(O)c1ccc(N2C(=O)c3ccc([N+](=O)[O-])cc3C2=O)cc1` registered a melting point of 331 to 332 °C.

Consider `CN(C)C(=S)CCC(c1ccccc1)(c1ccccc1)c1ccccc1`, for which the melting point lay in the range of 114 to 116 °C.

The molecule `COc1cc(OC)nc(Oc2c(Cl)cc(Cl)cc2C=O)n1` showed a melting point of 132 to 133 °C.

Molecule `O=C(CCc1ccc(Cl)cc1Cl)NC1N=C(c2ccccc2)c2ccccc2-n2ccnc21` (configuration not stated) yielded a melting point of 183 to 184 °C.

For the molecule `CC(C)(C)N1C(=O)[C@@H]2C[C@H]1CN2C(=O)[C@@H](O)[C@H](Cc1ccccc1)NC(=O)[C@H](CC(N)=O)NC(=O)OCc1ccccc1`, the melting point was in the range of 112 to 115 °C.

On to `CN1CCN(C(c2ccc(Cl)cc2)c2cccc(C=CC(=O)O)c2)CC1` (configuration not stated), for which the melting point is 131 to 141 °C.

Regarding `CN1C(=O)CN(C(=O)NC2C3CC4CC(C3)CC2C4)C(c2ccccc2)c2ccccc21` (racemic), the melting point was 243 to 244 °C.

Consider `COCCCn1c(C(=O)O)cc2c3c(c(-c4ccccc4Cl)cc21)C(=O)NC3=O`, for which the melting point lay within 272 to 274 °C.

`COc1cccc(-n2nc(-c3ccccc3)c3cccnc32)c1` displayed a melting point of 102 to 105 °C.

In turn, `CC(C)(C)OC(=O)NC1COCCCC=CC2CC2(C(=O)NS(=O)(=O)C2CC2)NC(=O)C2CC(OC(=O)c3ccc(Oc4ccccc4)cc3)CN2C1=O` (configuration not stated) came in with a melting point of 207 to 209 °C.

For the molecule `COc1cc(C)c(C=CC(C)=CCCC=O)c(C)c1C`, the melting point lay in the range of 42 to 45 °C.

In turn, `CCOCc1nc2c(N)nc(C)c(C)c2n1CC1(O)CCC1` had a melting point of 190 to 191 °C.

For the molecule `CCCCC[C@@H](CNC(=O)Nc1c(N2CCCC2)ncnc1N1CCCC1)c1cccc2c1OCO2`, the melting point fell in the range of 199 to 200 °C.

On to `O=C(O)CCNC(=O)C(=Cc1ccc(C(F)(F)F)cc1)CS`, for which the melting point was determined as 108 °C.

`Cc1cc2c(-c3ccccc3)c(CC#N)n(C)c(=O)c2cc1C` returned a melting point of 186 to 188 °C.

For `O=[N+]([O-])c1ccc(CCN2CCN(c3nsc4ccccc34)CC2)cc1`, the melting point was 99 °C.

Molecule `Cc1nc2ccc(C(=O)O)nc2n1Cc1ccc(-c2ccccc2)cc1` gave a melting point of over 250 °C.

`COc1ccc(N)c(OCC(N)=O)c1` registered a melting point of 139 to 140 °C.

The molecule `CC(C)NC(=O)c1ccc(N2CCC(N3C(=O)OCc4ccccc43)CC2)c(S(C)(=O)=O)c1` yielded a melting point of 240 to 242 °C.

Consider `COC(=O)c1nn(-c2ccc(Cl)cc2Cl)c(-c2ccc(Cl)cc2)c1CBr`, for which the melting point stood at 145 °C.

In turn, `CC(=O)NNc1ccc(N2C(=S)SCC2(O)c2ccccc2)cc1` (configuration not stated) came in with a melting point of 80 to 84 °C.

Take `COc1ccc(CN2C(=O)C3CC(c4ccc([N+](=O)[O-])cc4)(C3)C2=O)cc1`: the melting point lay within 146 to 147 °C.

In the case of `CCCCc1nc2c(=O)[nH]ccc2n1Cc1ccc(-c2ccccc2C#N)cc1`, the melting point came out at 179 °C.

Molecule `C#CCOCCCCCCCCCC(=O)O` came in with a melting point of under 30 °C.

`CS(=O)(=O)OCCC(c1ccccc1)c1ccccc1`: the melting point fell in the range of 83 to 85 °C.

With `COC(=O)c1cc(CBr)cnc1C1=NC(C)(C(C)C)C(=O)N1C(=O)c1ccccc1` (configuration not stated), the melting point is 88 to 119 °C.

For the molecule `COc1cc2c(cc1OC)C(=O)C(=Cc1cccc([N+](=O)[O-])c1)CC2`, the melting point lay in the range of 186 to 187 °C.

`CC(C)(CNCCCCCCNCC(C)(C)[N+](=O)[O-])[N+](=O)[O-]` displayed a melting point of 26 to 27 °C.

`COc1ccc(/C=C/S(=O)(=O)N(C)c2ccccc2)cc1` registered a melting point of 126 to 129 °C.

In turn, `OC1Cc2c(Cl)cccc2Sc2ccc(C(F)(F)F)cc21` (configuration not stated) showed a melting point of 130 to 132 °C.

For the molecule `CCCCCCCCCCCCCCOc1ccc(C(=O)N(Cc2cccnc2)C(C)=O)cc1`, the melting point fell in the range of 46 to 48 °C.

Consider `O=C(C=Cc1cccnc1)NC(Cc1c[nH]c2ccccc12)C(=O)CCc1cc(C(F)(F)F)cc(C(F)(F)F)c1` (configuration not stated), for which the melting point lay within 138 to 139 °C.

In turn, `CC(C)n1nc(-c2cc(C(N)=O)c(=O)[nH]c2-c2ccccc2)ccc1=O` showed a melting point of over 250 °C.

For the molecule `CCOC(=O)c1cc(O)c2cc3c(O)cc(C(=O)OCC)nc3c(N3CCCCCC3)c2n1`, the melting point fell in the range of 301 to 302 °C.

`CSc1nc2c(Cl)cc(Cl)c([N+](=O)[O-])c2s1` came in with a melting point of 130 to 132 °C.

With `CC(C)[C@H](NC(=O)[C@H](CC(=O)OC(C)(C)C)NC(=O)CCCN)C(=O)OC(C)(C)C`, the melting point lay within 99 to 100 °C.

`O=C(OCc1cc2c3ccccc3[nH]c(=O)n2n1)c1ccccc1` registered a melting point of 262 to 265 °C.

With `COc1ccc(C(=O)n2c(C)c(Cc3cc(=O)n(-c4cccc(C(F)(F)F)c4)[nH]3)c3cc(OC)ccc32)cc1`, the melting point is 91 to 94 °C.

For `N#Cc1c(OCCO)nc(CCO)nc1N1CCc2ccccc2CC1`, the melting point is 118 to 120 °C.

Regarding `COc1ccc(Cl)c2nc(SCc3ccccc3)nn12`, the melting point fell in the range of 90 to 91 °C.

As to `O=C(NC(=O)c1nnn(Cc2ccccc2)c1NC(=O)c1ccccc1)c1ccccc1`, the melting point was 171 to 173 °C.

`CCCN(CCC)C(=O)n1ccc(S(=O)(=O)c2c(C)cc(C)cc2C)n1` yielded a melting point of 64 to 65 °C.

For `Cc1nn(C)c2c1Nc1ccccc1NC2=O`, the melting point lay within 189 to 190 °C.

As to `CC1(C)[C@@H]2CC3[C@H](C(=O)NCC(N)=O)[C@@]3(C)C[C@@H]21` (some centres not stated), the melting point was in the range of 169 to 170 °C.

Turning to `Cc1cc(C)c2[nH]c(=O)c(O)cc(=O)c2c1`, the melting point is 211 to 213 °C.

In turn, `C=CCOC(=O)C(=[N+]=[N-])C(=O)CC1CC(=O)N1` (configuration not stated) yielded a melting point of 83 °C.

In turn, `Cc1ncnc(-c2cc(O)c(Cl)cc2F)c1C` displayed a melting point of 176 to 178 °C.

Regarding `COc1ccc2c(c1)OCC(/C=C/C=C/C=C/C(=O)O)=C2`, the melting point was 238 to 240 °C.

Molecule `CCCCn1c(=O)c2ncn(C)c2c2cccnc21` had a melting point of 198 to 202 °C.

In the case of `Cc1csc2nc(CO)cn12`, the melting point was 156 to 157 °C.

As for `CC(=O)NC[C@H]1CN(c2cc(F)c3c(c2)CCCCC3=O)C(=O)O1`, the melting point was 151 to 152 °C.

The molecule `CCCCc1nn(-c2cccc([N+](=O)[O-])c2)c(=O)n1Cc1ccc(-c2ccccc2S(N)(=O)=O)cc1` returned a melting point of 73 to 76 °C.

In the case of `COc1cc2ncnc(N3CCC(O)(CCI)CC3)c2cc1OC`, the melting point was in the range of 179 to 181 °C.

Regarding `O=C(NO)c1ccccn1`, the melting point was in the range of 58 to 68 °C.

`CC(C)n1nc(-c2sc(C(=O)NCC(N)=O)nc2-c2ccccc2)ccc1=O` yielded a melting point of 248 to 249 °C.

`Cn1ncc2c1-c1cc(Cl)ccc1N(C(=O)C1CC1)C2` returned a melting point of 146 to 150 °C.

In the case of `COc1ccc(-n2nc(Sc3ccc(C(F)(F)F)cc3)c(C)c(C#N)c2=O)cc1`, the melting point was in the range of 151 to 155 °C.

For the molecule `COc1ccc(C=CC(=O)O)cc1-c1cc2c(cc1OCCCCCCCC(N)=O)C(C)(C)CCC2(C)C`, the melting point is 132 to 134 °C.

Molecule `O=C(SC(Cn1ccnc1)c1ccc(Cl)cc1Cl)c1ccccc1` (configuration not stated) had a melting point of 115 to 116 °C.

In turn, `CC(C)N(CCOc1cccc2nc(Cl)c3ccccc3c12)C(C)C` gave a melting point of 88 to 91 °C.

Take `COC(=O)[C@@H]1[C@H](c2ccccc2)N1S(=O)(=O)c1ccc(C)cc1` (some centres not stated): the melting point was in the range of 85 to 87 °C.

The molecule `CN1C(=O)CN(c2ccccc2)C1=S` returned a melting point of 112 °C.

In the case of `COc1ccc(C(=O)NCC(O)CCl)cc1OC` (configuration not stated), the melting point fell in the range of 104 to 106 °C.

As for `Cc1ccc(Nc2c3ccccc3nc3c(C)cccc23)cc1NC(=O)Oc1ccc(N(CCCl)CCCl)cc1`, the melting point lay in the range of 154 to 156 °C.

`O=CN1CCN(c2ncc3c(=O)c(C(=O)O)c[nH]c3n2)CC1` had a melting point of over 300 °C.

In turn, `Cc1cc(NC(=O)C(C)(O)COc2cccc(C#N)c2)ccc1[N+](=O)[O-]` (configuration not stated) showed a melting point of 107 to 110 °C.

In turn, `Cc1sc2c(c1CCN1CCC(c3noc4cc(F)ccc34)CC1)CCN(C(=O)c1ccccc1)C2` displayed a melting point of 192 to 195 °C.

Turning to `COc1cc(CBr)c(OC)cc1Cl`, the melting point fell in the range of 85 to 88 °C.

The molecule `COc1cccc(C=CC(=O)C2C(=O)CCC2=O)c1O` gave a melting point of 198 to 200 °C.

Take `COCC(C)Oc1cc(Oc2ccc(S(C)(=O)=O)cc2)cc2cc(C3=NCC(CC(N)=O)S3)[nH]c12` (configuration not stated): the melting point was 107 to 112 °C.

For `COc1ccc(-c2nnc3c4ccccc4c(O)nn23)cc1`, the melting point lay within 307 to 309 °C.

Molecule `COc1cccc([C@H]2O[C@H](CC(=O)Nc3cccc(CCC(=O)O)c3)C(=O)N(CC(C)(C)CO)c3ccc(Cl)cc32)c1OC` showed a melting point of 141 to 144 °C.

On to `CCCCCCCCCCCCCC[C@]1(C)OO[C@@H]2C[C@H]1CC(=O)[C@@H]2C`, for which the melting point stood at 46 °C.

`NC(=O)c1sc2nc(N3CCC(NCC(O)c4ccccc4F)CC3)cc(C(F)(F)F)c2c1N` (configuration not stated) showed a melting point of 192 to 194 °C.

With `Cc1cc(Cl)nc(SCC#N)n1`, the melting point lay in the range of 62 to 65 °C.

Regarding `CCCN(C1CC(C)(C)Oc2ccc(OCc3ccccc3)cc21)S(=O)(=O)CC` (configuration not stated), the melting point is 102 to 103 °C.

As to `CCSC(C)C(=O)N(CC)c1c[nH]nc1Cl` (configuration not stated), the melting point was in the range of 78 to 80 °C.

`CCC[C@H]1CC[C@H](c2ccc(-c3ccccc3)c(F)c2)CC1`: the melting point fell in the range of 96.5 to 97.3 °C.

In turn, `N=C(NO)c1cc(C(F)(F)F)cc(-c2ccc(Cl)cc2)n1` displayed a melting point of 180 to 186 °C.

`CCC1(CC)Cc2cc(OCC(=O)O)c(Cl)c(Cl)c2C1=O`: the melting point came out at 111 °C.

Molecule `CC(C)C[C@H](CC(=O)NC1CCCCC1)C(=O)OCc1ccccc1` came in with a melting point of 99 to 102 °C.

In turn, `CCCCNc1nc2cnnc(OCC)c2cc1C(=O)OCC` came in with a melting point of 98 to 99 °C.

In the case of `CC(=O)OC1CCC2(C)C(CCC3C4CCC(C(C)=O)C4(C)CC(=O)C32Cl)C1` (configuration not stated), the melting point lay within 151 to 154 °C.

The melting point is the temperature of the solid-liquid transition.
